Legend:
Assay in all cases: cells
[1] = test system: GOTO; type: functional, cell-based, Homo sapiens; conditions: Homo sapiens, GOTO;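 note: growth inhibition of GOTO cells, read out by a cell viability assay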
Description: SANGER: Inhibition of human GOTO cell growth in a cell viability assay.

[2] = test system: MV4-11; type: functional, cell-based, Homo sapiens, MV-4-11; conditions: Homo sapiens, MV4-11;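 note: cell viability readout measuring growth inhibition of human MV-4-11 cells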
Description: SANGER: Inhibition of human MV-4-11 cell growth in a cell viability assay.

[3] = test system: ATN-1; type: functional, cell-based, Homo sapiens; conditions: Homo sapiens, ATN-1;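 note: growth inhibition of human ATN-1 cells, read out with a cell viability assay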
Description: SANGER: Inhibition of human ATN-1 cell growth in a cell viability assay.

[4] = test system: EW-3; type: functional, cell-based, Homo sapiens; conditions: Homo sapiens, EW-3;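 note: cell viability assay read-out, IC50 reflects inhibition of growth of the EW-3 cells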
Description: SANGER: Inhibition of human EW-3 cell growth in a cell viability assay.

[5] = test system: MOLT-4; type: functional, cell-based, Homo sapiens; conditions: Homo sapiens, MOLT-4;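 note: growth inhibition of MOLT-4 cells, determined with a cell viability readout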
Description: SANGER: Inhibition of human MOLT-4 cell growth in a cell viability assay.

[6] = test system: MFM-223; type: functional, cell-based, Homo sapiens; conditions: Homo sapiens, MFM-223
Description: SANGER: Inhibition of human MFM-223 cell growth in a cell viability assay.

[7] = test system: SW684; type: functional, cell-based, Homo sapiens; conditions: Homo sapiens, SW684; read-out: IC50;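 note: growth inhibition of human SW684 cells, measured by a cell viability assay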
Description: SANGER: Inhibition of human SW684 cell growth in a cell viability assay.

[8] = test system: NCI-H1648; type: functional, cell-based, Homo sapiens; conditions: Homo sapiens, NCI-H1648;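 note: cell viability assay measuring inhibition of NCI-H1648 cell growth, from the Sanger screening data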
Description: SANGER: Inhibition of human NCI-H1648 cell growth in a cell viability assay.

[9] = test system: OS-RC-2; type: functional, cell-based, Homo sapiens; conditions: Homo sapiens, OS-RC-2;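 note: growth inhibition of human OS-RC-2 cells, measured by a cell viability assay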
Description: SANGER: Inhibition of human OS-RC-2 cell growth in a cell viability assay.

[10] = test system: LU-139; type: functional, cell-based, Homo sapiens; conditions: Homo sapiens, LU-139
Description: SANGER: Inhibition of human LU-139 cell growth in a cell viability assay.

[11] = test system: HCC2218; type: functional, cell-based, Homo sapiens; conditions: Homo sapiens, HCC2218;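 note: cell viability assay read-out, with IC50 given as the concentration that inhibits growth of the cell line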
Description: SANGER: Inhibition of human HCC2218 cell growth in a cell viability assay.

[12] = test system: HEL; type: functional, cell-based, Homo sapiens; conditions: Homo sapiens, HEL;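 note: growth inhibition of HEL cells, read out with a cell viability assay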
Description: SANGER: Inhibition of human HEL cell growth in a cell viability assay.

[13] = test system: NCI-H720; type: functional, cell-based, Homo sapiens; conditions: Homo sapiens, NCI-H720;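 note: growth inhibition of human NCI-H720 cells determined by a cell viability assay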
Description: SANGER: Inhibition of human NCI-H720 cell growth in a cell viability assay.

[14] = test system: NB69; type: functional, cell-based, Homo sapiens; conditions: Homo sapiens, NB69;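 note: growth inhibition of NB69 cells, determined by a cell viability assay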
Description: SANGER: Inhibition of human NB69 cell growth in a cell viability assay.

[15] = test system: Mo; type: functional, cell-based, Homo sapiens; conditions: Homo sapiens, Mo
Description: SANGER: Inhibition of human Mo-T cell growth in a cell viability assay.

[16] = test system: ES5; type: functional, cell-based, Homo sapiens; conditions: Homo sapiens, ES5;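 note: growth inhibition of human ES5 cells, read out by a cell viability assay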
Description: SANGER: Inhibition of human ES5 cell growth in a cell viability assay.

[17] = test system: BB49-HNC; type: functional, cell-based, Homo sapiens; conditions: Homo sapiens, BB49-HNC;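 note: cell viability assay read-out, reported as inhibition of BB49-HNC cell growth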
Description: SANGER: Inhibition of human BB49-HNC cell growth in a cell viability assay.

[18] = test system: A704; type: functional, cell-based; conditions: Homo sapiens;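 note: growth inhibition of human A704 cells, read out with a cell viability assay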
Description: SANGER: Inhibition of human A704 cell growth in a cell viability assay.

[19] = test system: SK-NEP-1; type: functional, cell-based, Homo sapiens; conditions: Homo sapiens, SK-NEP-1;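 note: growth inhibition of human SK-NEP-1 cells, read out by a cell viability assay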
Description: SANGER: Inhibition of human SK-NEP-1 cell growth in a cell viability assay.

[20] = test system: NH-12; type: functional, cell-based, Homo sapiens; conditions: Homo sapiens, NH-12;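 note: growth inhibition of NH-12 cells, read out with a cell viability assay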
Description: SANGER: Inhibition of human NH-12 cell growth in a cell viability assay.

[21] = test system: 697; type: functional, cell-based, Homo sapiens; conditions: Homo sapiens
Description: SANGER: Inhibition of human 697 cell growth in a cell viability assay.

[22] = test system: DU-4475; type: functional, cell-based, Homo sapiens; conditions: Homo sapiens, DU-4475
Description: SANGER: Inhibition of human DU-4475 cell growth in a cell viability assay.

[23] = test system: NCI-H1770; type: functional, cell-based, Homo sapiens; conditions: Homo sapiens, NCI-H1770;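 note: growth inhibition of NCI-H1770 cells determined with a viability readout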
Description: SANGER: Inhibition of human NCI-H1770 cell growth in a cell viability assay.

[24] = test system: NCI-H1299; type: functional, cell-based; conditions: Homo sapiens;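 note: growth inhibition of human NCI-H1299 cells, read out by a cell viability assay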
Description: SANGER: Inhibition of human NCI-H1299 cell growth in a cell viability assay.

[25] = test system: TK-10; type: functional, cell-based, Homo sapiens; conditions: Homo sapiens, TK-10;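 note: growth inhibition of TK-10 cells, read out in a cell viability assay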
Description: SANGER: Inhibition of human TK10 cell growth in a cell viability assay.

[26] = test system: NB13; type: functional, cell-based, Homo sapiens; conditions: Homo sapiens, NB13;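 note: cell viability readout measuring growth inhibition of human NB13 cells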
Description: SANGER: Inhibition of human NB13 cell growth in a cell viability assay.

[27] = test system: ES7; type: functional, cell-based, Homo sapiens; conditions: Homo sapiens, ES7;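 note: growth inhibition of cultured human ES7 cells, read out as cell viability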
Description: SANGER: Inhibition of human ES7 cell growth in a cell viability assay.

[28] = test system: IST-MES1; type: functional, cell-based, Homo sapiens; conditions: Homo sapiens, IST-MES1;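 note: growth inhibition of IST-MES1 cells, measured with a cell viability assay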
Description: SANGER: Inhibition of human IST-MES1 cell growth in a cell viability assay.

[29] = test system: NCI-H1304; type: functional, cell-based, Homo sapiens; conditions: Homo sapiens, NCI-H1304;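 note: growth inhibition of the cancer cell line, measured in a cell viability assay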
Description: SANGER: Inhibition of human NCI-H1304 cell growth in a cell viability assay.

[30] = test system: COLO-829; type: functional, cell-based, Homo sapiens; conditions: Homo sapiens, COLO-829
Description: SANGER: Inhibition of human COLO-829 cell growth in a cell viability assay.

[31] = test system: SF-126; type: functional, cell-based, Homo sapiens; conditions: Homo sapiens, SF-126;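 note: growth inhibition of human SF126 cells, read out with a cell viability assay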
Description: SANGER: Inhibition of human SF126 cell growth in a cell viability assay.

[32] = test system: K562; type: functional, cell-based, Homo sapiens; conditions: Homo sapiens, K562
Description: SANGER: Inhibition of human K-562 cell growth in a cell viability assay.

[33] = test system: SK-PN-DW; type: functional, cell-based, Homo sapiens; conditions: Homo sapiens, SK-PN-DW;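 note: growth inhibition measured with a viability assay on these cells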
Description: SANGER: Inhibition of human SK-PN-DW cell growth in a cell viability assay.

[34] = test system: SF-539; type: functional, cell-based, Homo sapiens; conditions: Homo sapiens, SF-539;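 note: Read-out is a cell viability assay, with IC50 reflecting inhibition of cell growth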
Description: SANGER: Inhibition of human SF539 cell growth in a cell viability assay.

[35] = test system: NOS-1; type: functional, cell-based, Homo sapiens; conditions: Homo sapiens, NOS-1;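 note: growth inhibition of the human NOS-1 cell line, read out with a cell viability assay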
Description: SANGER: Inhibition of human NOS-1 cell growth in a cell viability assay.

[36] = test system: NB10; type: functional, cell-based, Homo sapiens; conditions: Homo sapiens, NB10;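 note: growth inhibition of NB10 cells, read out by a cell viability assay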
Description: SANGER: Inhibition of human NB10 cell growth in a cell viability assay.

[37] = test system: SK-MEL-2; type: functional, cell-based, Homo sapiens; conditions: Homo sapiens, SK-MEL-2;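 note: growth inhibition of human SK-MEL-2 cells measured with a cell viability assay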
Description: SANGER: Inhibition of human SK-MEL-2 cell growth in a cell viability assay.

[38] = test system: TE-6; type: functional, cell-based, Homo sapiens; conditions: Homo sapiens, TE-6;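 note: growth inhibition of TE-6 cells, read out with a cell viability assay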
Description: SANGER: Inhibition of human TE-6 cell growth in a cell viability assay.

[39] = test system: MPP-89; type: functional, cell-based, Homo sapiens; conditions: Homo sapiens, MPP-89;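 note: growth inhibition of human MPP-89 cells, read out with a cell viability assay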
Description: SANGER: Inhibition of human MPP-89 cell growth in a cell viability assay.

[40] = test system: ES6; type: functional, cell-based; conditions: Homo sapiens;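 note: growth inhibition of human ES6 cells, read out with a cell viability assay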
Description: SANGER: Inhibition of human ES6 cell growth in a cell viability assay.

[41] = test system: CGTH-W-1; type: functional, cell-based, Homo sapiens; conditions: Homo sapiens, CGTH-W-1;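 note: growth inhibition of human CGTH-W-1 cells measured by cell viability assay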
Description: SANGER: Inhibition of human CGTH-W-1 cell growth in a cell viability assay.

[42] = test system: D-263MG; type: functional, cell-based, Homo sapiens; conditions: Homo sapiens, D-263MG
Description: SANGER: Inhibition of human D-263MG cell growth in a cell viability assay.

[43] = test system: TE-12; type: functional, cell-based, Homo sapiens; conditions: Homo sapiens, TE-12;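 note: growth inhibition of TE-12 cells, read out by a cell viability assay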
Description: SANGER: Inhibition of human TE-12 cell growth in a cell viability assay.

[44] = test system: TE-1; type: functional, cell-based, Homo sapiens; conditions: Homo sapiens, TE-1;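 note: growth inhibition of the human TE-1 cell line, read out with a cell viability assay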
Description: SANGER: Inhibition of human TE-1 cell growth in a cell viability assay.

[45] = test system: SK-LMS-1; type: functional, cell-based, Homo sapiens; conditions: Homo sapiens, SK-LMS-1;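 note: growth inhibition of human SK-LMS-1 cells, read out with a cell viability assay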
Description: SANGER: Inhibition of human SK-LMS-1 cell growth in a cell viability assay.

[46] = test system: LS-1034; type: functional, cell-based, Homo sapiens; conditions: Homo sapiens, LS-1034
Description: SANGER: Inhibition of human LS-1034 cell growth in a cell viability assay.

[47] = test system: KS-1; type: functional, cell-based; conditions: Homo sapiens;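 note: growth inhibition of KS-1 cells, read out with a cell viability assay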
Description: SANGER: Inhibition of human KS-1 cell growth in a cell viability assay.

[48] = test system: L-363; type: functional, cell-based, Homo sapiens; conditions: Homo sapiens, L-363
Description: SANGER: Inhibition of human L-363 cell growth in a cell viability assay.

[49] = test system: NCI-H1838; type: functional, cell-based, Homo sapiens; conditions: Homo sapiens, NCI-H1838;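 note: growth inhibition of NCI-H1838 cells, determined with a cell viability readout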
Description: SANGER: Inhibition of human NCI-H1838 cell growth in a cell viability assay.

[50] = test system: L-428; type: functional, cell-based, Homo sapiens; conditions: Homo sapiens, L-428
Description: SANGER: Inhibition of human L-428 cell growth in a cell viability assay.

OC[C@H](Cc1ccccc1)Nc1nc(Oc2ccc3c(c2)CCC3)nc2c1ncn2Cc1ccc(-c2ccccc2)cc1
IC50 [1]: 5.86 µM
IC50 [2]: 5.51 µM
IC50 [3]: > 10.2 µM
IC50 [4]: > 10.2 µM
IC50 [5]: > 10.2 µM
IC50 [6]: > 10.2 µM
IC50 [7]: 8.52 µM
IC50 [8]: > 10.2 µM
IC50 [9]: > 10.2 µM
IC50 [10]: > 10.2 µM
IC50 [11]: > 10.2 µM
IC50 [12]: 3.28 µM
IC50 [13]: > 10.2 µM
IC50 [14]: > 10.2 µM
IC50 [15]: > 10.2 µM
IC50 [16]: > 10.2 µM
IC50 [17]: > 10.2 µM
IC50 [18]: > 10.2 µM
IC50 [19]: > 10.2 µM
IC50 [20]: > 10.2 µM
IC50 [21]: 3.32 µM
IC50 [22]: 1630 nM
IC50 [23]: 8.9 µM
IC50 [24]: > 10.2 µM
IC50 [25]: > 10.2 µM
IC50 [26]: 8.09 µM
IC50 [27]: > 10.2 µM
IC50 [28]: > 10.2 µM
IC50 [29]: > 10.2 µM
IC50 [30]: > 10.2 µM
IC50 [31]: > 10.2 µM
IC50 [32]: > 10.2 µM
IC50 [33]: 5.48 µM
IC50 [34]: > 10.2 µM
IC50 [35]: > 10.2 µM
IC50 [36]: > 10.2 µM
IC50 [37]: > 10.2 µM
IC50 [38]: > 10.2 µM
IC50 [39]: > 10.2 µM
IC50 [40]: > 10.2 µM
IC50 [41]: > 10.2 µM
IC50 [42]: > 10.2 µM
IC50 [43]: > 10.2 µM
IC50 [44]: > 10.2 µM
IC50 [45]: 2940 nM
IC50 [46]: > 10.2 µM
IC50 [47]: > 10.2 µM
IC50 [48]: 6.66 µM
IC50 [49]: > 10.2 µM
IC50 [50]: > 10.2 µM

O=S(=O)(O)c1ccc2cc(/N=N/c3cc(S(=O)(=O)O)c4cccnc4c3O)ccc2c1
IC50 [1]: > 16 µM
IC50 [2]: > 16 µM
IC50 [3]: > 16 µM
IC50 [4]: > 16 µM
IC50 [5]: > 16 µM
IC50 [6]: > 16 µM
IC50 [7]: > 16 µM
IC50 [8]: > 16 µM
IC50 [9]: > 16 µM
IC50 [10]: > 16 µM
IC50 [11]: > 16 µM
IC50 [12]: > 16 µM
IC50 [13]: > 16 µM
IC50 [14]: > 16 µM
IC50 [15]: > 16 µM
IC50 [16]: > 16 µM
IC50 [17]: > 16 µM
IC50 [18]: > 16 µM
IC50 [19]: > 16 µM
IC50 [20]: > 16 µM
IC50 [21]: > 16 µM
IC50 [22]: > 16000 nM
IC50 [23]: > 16 µM
IC50 [24]: > 16 µM
IC50 [25]: > 16 µM
IC50 [26]: > 16 µM
IC50 [27]: > 16 µM
IC50 [28]: > 16 µM
IC50 [29]: > 16 µM
IC50 [30]: > 16 µM
IC50 [31]: > 16 µM
IC50 [32]: > 16 µM
IC50 [33]: > 16 µM
IC50 [34]: > 16 µM
IC50 [35]: > 16 µM
IC50 [36]: > 16 µM
IC50 [37]: > 16 µM
IC50 [38]: > 16 µM
IC50 [39]: > 16 µM
IC50 [40]: > 16 µM
IC50 [41]: > 16 µM
IC50 [42]: > 16 µM
IC50 [43]: > 16 µM
IC50 [44]: > 16 µM
IC50 [45]: 9450 nM
IC50 [46]: > 16 µM
IC50 [47]: > 16 µM
IC50 [48]: > 16 µM
IC50 [49]: > 16 µM
IC50 [50]: > 16 µM

NC(=O)Nc1cc(-c2cccc(F)c2)sc1C(=O)N[C@H]1CCCNC1 [AZD-7762]
IC50 [1]: 0.0312 µM
IC50 [2]: < 0.00781 µM
IC50 [3]: 0.0342 µM
IC50 [4]: 0.736 µM
IC50 [5]: 0.239 µM
IC50 [6]: 1.24 µM
IC50 [7]: > 2 µM
IC50 [8]: > 2 µM
IC50 [9]: 0.62 µM
IC50 [10]: > 2 µM
IC50 [11]: > 2 µM
IC50 [12]: 0.225 µM
IC50 [13]: 0.402 µM
IC50 [14]: 0.705 µM
IC50 [15]: > 2 µM
IC50 [16]: 0.135 µM
IC50 [17]: 1.4 µM
IC50 [18]: 0.539 µM
IC50 [19]: 0.464 µM
IC50 [20]: 0.357 µM
IC50 [21]: 0.111 µM
IC50 [22]: 349 nM
IC50 [23]: > 2 µM
IC50 [24]: 0.556 µM
IC50 [25]: 0.379 µM
IC50 [26]: 0.537 µM
IC50 [27]: 0.16 µM
IC50 [28]: > 2 µM
IC50 [29]: > 2 µM
IC50 [30]: 0.298 µM
IC50 [31]: 0.574 µM
IC50 [32]: > 2 µM
IC50 [33]: 0.119 µM
IC50 [34]: 0.137 µM
IC50 [35]: 0.15 µM
IC50 [36]: 0.591 µM
IC50 [37]: 0.1 µM
IC50 [38]: > 2 µM
IC50 [39]: 0.245 µM
IC50 [40]: 0.442 µM
IC50 [41]: 0.0142 µM
IC50 [42]: 0.909 µM
IC50 [43]: > 2 µM
IC50 [44]: 1.21 µM
IC50 [45]: > 2000 nM
IC50 [46]: > 2 µM
IC50 [47]: 0.466 µM
IC50 [48]: 0.0739 µM
IC50 [49]: > 2 µM
IC50 [50]: > 2 µM

— ChEMBL document CHEMBL1201861, “Genomics of Drug Sensitity in Cancer screening data, Wellcome Trust Sanger Institute”
